Experimental findings from patent publication US7968577B2 (Bristol-Myers Squibb Company, priority 2006, dated 2011) are described below.

As usually defined, the EC50 is the concentration giving half of the maximal effect. Low values mean a more potent agent, high ones a less potent agent.

The subject of the test is AP-1 induced transcriptional activity. As to the kind of experiment: Cellular Transrepressional Assay: AP-1 luciferase reporter in PMA-activated A549 cells. The class given is cell-based. To be noted: for Emax: A549, 7 h, read-out: AP-1 Max % inh (Cellular Transrepression Assay). The method, then: Cellular Transrepressional Assay
To measure the ability of test molecules to inhibit AP-1 induced transcriptional activity we utilized an A549 cell which was stably transfected with a plasmid containing 7× AP-1 DNA binding sites (pAP-1-Luc plasmid, Stratagene Co. La Jolla, Calif.) followed by the gene for luciferase. Cells were activated with 10 ng/ml of […] (PMA) plus or minus test molecules for 7 hours. After 7 hours a luciferase reagent was added to measure luciferase enzymatic activity in the cell. After a 10 minute incubation of luciferase reagent with cells, luminescence was measured in a TopCount luminescence counter. Repression of AP-1 activity was calculated as the percentage decrease in the signal induced by PMA alone. Test molecules were analyzed in the concentration range from 0.1 nM to 40 μM. EC50s were determined by using standard curve fitting methods such as Excel fit (Microsoft Co.).
On the technique in general: In a reporter assay the amount or activity of a reporter protein is the signal.

The mark [1] stands for this setting: Homo sapiens, maximum inhibition, Cellular Transrepression Assay.
[2] abbreviates: Homo sapiens, A549, Cellular Transrepression Assay.

Consider `O=C(Nc1nccs1)C1(C(c2ccccc2)c2ccccc2)CCCC1` [Example 162, 1-(diphenylmethyl)-N-1,3-thiazol-2-ylcyclopentanecarboxamide], for which the Emax under setting [1] was 22.8%.
Take `Cc1ccc(-c2csc(NC(=O)C(C)(C)C(c3ccccc3)c3ccccc3)n2)c2ccccc12` [Example 164, 2,2-dimethyl-N-(4-(4-methyl-1-naphthalenyl)-1,3-thiazol-2-yl)-3,3-diphenylpropanamide]: under setting [1], the Emax was found to be 75.2%. Under setting [2], this compound gave a 50% effective concentration (EC50) of 810 nM.
Turning to `COc1ccc2c(-c3csc(NC(=O)C(C)(C)C(c4ccccc4)c4ccccc4)n3)cccc2c1` [Example 166, 2,2-dimethyl-N-(4-(6-(methyloxy)-1-naphthalenyl)-1,3-thiazol-2-yl)-3,3-diphenylpropanamide], the Emax under setting [1] was 62.3%. Further, the EC50 under setting [2] amounted to 950 nM.
Take `CC(C)(C(=O)Nc1nc(-c2ccc(F)cc2)cs1)C(c1ccccc1)c1ccccc1` [Example 168, N-(4-(4-fluorophenyl)-1,3-thiazol-2-yl)-2,2-dimethyl-3,3-diphenylpropanamide]: the Emax under setting [1] was found to be 23%.
`Cc1cccc(-c2csc(NC(=O)C(C)(C)C(c3ccccc3)c3ccccc3)n2)c1` [Example 170, 2,2-dimethyl-N-(4-(3-methylphenyl)-1,3-thiazol-2-yl)-3,3-diphenylpropanamide]: the Emax under setting [1] is 27%.
Turning to `CC(C)(c1ccccc1)c1csc(NC(=O)C(C)(C)C(c2ccccc2)c2ccccc2)n1` [Example 181, 2,2-dimethyl-N-(4-(1-methyl-1-phenylethyl)-1,3-thiazol-2-yl)-3,3-diphenylpropanamide], the Emax under setting [1] was 28.9%.
Still for that read-out and setting: then `CC(C)(C(=O)Nc1nc(-c2ccc(F)c3ccccc23)cs1)C(c1ccccc1)c1ccccc1` [Example 183, N-(4-(4-fluoro-1-naphthalenyl)-1,3-thiazol-2-yl)-2,2-dimethyl-3,3-diphenylpropanamide], with 65.3%; and `CC(C)(C(=O)Nc1nc(-c2ccnc3ccccc23)cs1)C(c1ccccc1)c1ccccc1` [Example 184, 2,2-dimethyl-3,3-diphenyl-N-(4-(4-quinolinyl)-1,3-thiazol-2-yl)propanamide], with 57.5%.
Same read-out and setting: then `CC(C)(C(=O)Nc1nccs1)C(c1ccc(O)cc1)c1ccc(O)cc1` [Example 186, 3,3-bis(4-hydroxyphenyl)-2,2-dimethyl-N-1,3-thiazol-2-ylpropanamide], with 20.5%; and `CCOC(=O)c1sc(NC(=O)C(C)(C)C(c2ccc(O)cc2)c2ccc(O)cc2)nc1C` [Example 194, ethyl 2-((3,3-bis(4-hydroxyphenyl)-2,2-dimethylpropanoyl)amino)-4-methyl-1,3-thiazole-5-carboxylate], with 25.4%; and `CC(C)(C(=O)Nc1nccs1)C(c1ccccc1)c1cccc(O)c1` (stereo not shown) [Example 197, 3-(3-hydroxyphenyl)-2,2-dimethyl-3-phenyl-N-1,3-thiazol-2-ylpropanamide], with 36.3%.
Still for that read-out and setting: then `Cc1csc(NC(=O)C(C)(C)C(c2ccccc2)c2cccc(O)c2)n1` (stereo not shown) [Example 198, 3-(3-hydroxyphenyl)-2,2-dimethyl-N-(4-methyl-1,3-thiazol-2-yl)-3-phenylpropanamide], with 25.8%.
Consider `Cc1cnc(NC(=O)C(C)(C)C(c2ccccc2)c2cccc(O)c2)s1` (stereo not shown) [Example 199, 3-(3-hydroxyphenyl)-2,2-dimethyl-N-(5-methyl-1,3-thiazol-2-yl)-3-phenylpropanamide], for which the Emax under setting [1] stood at 31.1%.
Same read-out and setting: then `CC(C)(C(=O)Nc1nc(CCc2ccccc2)cs1)C(c1ccccc1)c1cccc(O)c1` (stereo not shown) [Example 203, 3-(3-hydroxyphenyl)-2,2-dimethyl-3-phenyl-N-(4-(2-phenylethyl)-1,3-thiazol-2-yl)propanamide], with 35.1%.
Same read-out and setting: then `CCOC(=O)c1sc(NC(=O)C(C)(C)C(c2ccccc2)c2cccc(O)c2)nc1C` (stereo not shown) [Example 206, ethyl 2-((3-(3-hydroxyphenyl)-2,2-dimethyl-3-phenylpropanoyl)amino)-4-methyl-1,3-thiazole-5-carboxylate], with 37.7%.
In the case of `CC(C)(C(=O)Nc1nccs1)C(c1ccccc1)c1ccc(O)cc1` (stereo not shown) [Example 209, 3-(4-hydroxyphenyl)-2,2-dimethyl-3-phenyl-N-1,3-thiazol-2-ylpropanamide], the Emax under setting [1] was found to be 46.9%. In addition, a half-maximal effect under setting [2] (EC50) was put at 86.5 nM.
Turning to `CC(C)(C(=O)Nc1nc(-c2cccc3ccccc23)cs1)C(c1ccccc1)c1ccc(O)cc1` (stereo not shown) [Example 217, 3-(4-hydroxyphenyl)-2,2-dimethyl-N-(4-(1-naphthalenyl)-1,3-thiazol-2-yl)-3-phenylpropanamide], the Emax under setting [1] was determined as 35%. Besides, the midpoint of the response under setting [2], the EC50, lay at 516 nM.
As for `CCOC(=O)c1sc(NC(=O)C(C)(C)C(c2ccccc2)c2ccc(O)cc2)nc1C` (stereo not shown) [Example 218, ethyl 2-((3-(4-hydroxyphenyl)-2,2-dimethyl-3-phenylpropanoyl)amino)-4-methyl-1,3-thiazole-5-carboxylate], the Emax under setting [1] amounted to 38%.
Still for that read-out and setting: then `CC(C)(C(=O)Nc1nc2ccc(Cl)cc2s1)C(c1ccccc1)c1ccc(O)cc1` (stereo not shown) [Example 220, N-(6-chloro-1,3-benzothiazol-2-yl)-3-(4-hydroxyphenyl)-2,2-dimethyl-3-phenylpropanamide], with 36.2%.
Turning to `CC(C)(C(=O)Nc1nc(Cc2ccc(-c3ccncc3)cc2)cs1)C(c1ccccc1)c1ccc(N2CCOCC2)cc1` (stereo not shown) [Example 223, 2,2-dimethyl-3-(4-(4-morpholinyl)phenyl)-3-phenyl-N-(4-((4-(4-pyridinyl)phenyl)methyl)-1,3-thiazol-2-yl)propanamide], the Emax under setting [1] worked out at 70.8%. The compound also returned a 50% effective concentration (EC50) under setting [2] of 88.1 nM.
`CC(C)(C(=O)Nc1nccs1)C(c1ccccc1)c1ccc(N2CCOCC2)cc1` (stereo not shown) [Example 224, 2,2-dimethyl-3-(4-(4-morpholinyl)phenyl)-3-phenyl-N-1,3-thiazol-2-ylpropanamide]: the Emax under setting [1] came to 33.8%. Also, the midpoint of the response under setting [2], the EC50, lay at 161 nM.
With `CC(C)(C(=O)Nc1nncs1)C(c1ccccc1)c1ccc(N2CCOCC2)cc1` (stereo not shown) [Example 225, 2,2-dimethyl-3-(4-(4-morpholinyl)phenyl)-3-phenyl-N-1,3,4-thiadiazol-2-ylpropanamide], the EC50 (Cellular Transrepression Assay) is 114 nM. Under setting [1], the Emax came to 34.3%.
As to `Cc1ccc(C(c2ccc(N3CCOCC3)cc2)C(C)(C)C(=O)Nc2nccs2)cc1` (stereo not shown) [Example 227, 2,2-dimethyl-3-(4-methylphenyl)-3-(4-(4-morpholinyl)phenyl)-N-1,3-thiazol-2-ylpropanamide], the Emax under setting [1] is 43.7%. Further, the EC50 under setting [2] was determined as 666 nM.
In the same order, the values of `CC(C)(C(=O)Nc1nccs1)C(c1ccc(N2CCOCC2)cc1)c1cccc(F)c1` (stereo not shown) [Example 228, 3-(3-fluorophenyl)-2,2-dimethyl-3-(4-(4-morpholinyl)phenyl)-N-1,3-thiazol-2-ylpropanamide] are 36.9% and 33.5 nM.
On to `CC(C)(C(=O)Nc1nncs1)C(c1ccc(N2CCOCC2)cc1)c1cccc(F)c1` (stereo not shown) [Example 229, 3-(3-fluorophenyl)-2,2-dimethyl-3-(4-(4-morpholinyl)phenyl)-N-1,3,4-thiadiazol-2-ylpropanamide], for which, under setting [1], the Emax is 44.2%. Also, under setting [2], the EC50 came out at 18.6 nM.
For the compound `Cc1cccc(C(c2ccc(N3CCOCC3)cc2)C(C)(C)C(=O)Nc2nccs2)c1` (stereo not shown) [Example 234, 2,2-dimethyl-3-(3-methylphenyl)-3-(4-(4-morpholinyl)phenyl)-N-1,3-thiazol-2-ylpropanamide], the Emax under setting [1] worked out at 39%. Under setting [2], this compound displayed an EC50 of 573 nM.
With `CC(C)(C(=O)Nc1nncs1)C(c1ccccc1)c1ccc(N2CCCCC2)cc1` (stereo not shown) [Example 236, 2,2-dimethyl-3-phenyl-3-(4-(1-piperidinyl)phenyl)-N-1,3,4-thiadiazol-2-ylpropanamide], under setting [1], the Emax came out at 38.5%. Moreover, the EC50 under setting [2] worked out at 151 nM.
For `CC(C)(C(=O)Nc1nncs1)C(c1ccccc1)c1ccc(N2CCOCC2)cc1` (stereo not shown) [Example 260, 2,2-dimethyl-3-(4-(4-morpholinyl)phenyl)-3-phenyl-N-1,3,4-thiadiazol-2-ylpropanamide], the EC50 (Cellular Transrepression Assay) was 4.06 nM. Further, the “AP-1 Max % inh (Cellular Transrepression Assay)” value (maximum inhibition, Cellular Transrepression Assay) turned out to be 35.64%.
Consider `CCOC(=O)c1csc(NC(=O)C(C)(C)[C@H](c2ccccc2)c2ccc(OC)cc2)n1` [Example 264, ethyl 2-((2,2-dimethyl-3-(4-(methyloxy)phenyl)-3-phenylpropanoyl)amino)-1,3-thiazole-4-carboxylate], for which, under setting [1], the Emax amounted to 58.6%. Also, a half-maximal effect under setting [2] (EC50) was put at 772 nM.
As to `COc1ccc([C@@H](c2ccccc2)C(C)(C)C(=O)Nc2nncs2)cc1` [Example 276, (3R)-2,2-dimethyl-3-(4-(methyloxy)phenyl)-3-phenyl-N-1,3,4-thiadiazol-2-ylpropanamide], the Emax under setting [1] was 34%. Moreover, the midpoint of the response under setting [2], the EC50, lay at 190 nM.
In the case of `COc1ccc(Cc2csc(NC(=O)C(C)(C)C(c3ccccc3)c3ccc(OC)cc3)n2)cc1` (stereo not shown) [Example 288, 2,2-dimethyl-3-(4-(methyloxy)phenyl)-N-(4-((4-(methyloxy)phenyl)methyl)-1,3-thiazol-2-yl)-3-phenylpropanamide], under setting [1], the Emax was 62.2%. This compound returned an EC50 under setting [2] of 216 nM.
For the compound `COc1ccc(C(c2ccccc2)C(C)(C)C(=O)Nc2nc(Cc3ccc(-c4ccncc4)cc3)cs2)cc1` (stereo not shown) [Example 289, 2,2-dimethyl-3-(4-(methyloxy)phenyl)-3-phenyl-N-(4-((4-(4-pyridinyl)phenyl)methyl)-1,3-thiazol-2-yl)propanamide], the Emax under setting [1] is 71.6%. In addition, under setting [2], the midpoint of the response, the EC50, lay at 18.5 nM.
